# Assays:
# Assay type in all cases: biochemical
# JAK1 = JAK1 (Homo sapiens, UniProt P23458); experiment: JAK kinase activity, homogeneous time-resolved fluorescence (JAK1 reaction system); settings: ATP 2 μM, JAK1 protein 0.2 ng/μL; read-out: JAK 1 activity
# In short: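 Kinase activity read as the 665 nm/615 nm time-resolved fluorescence ratio (320 nm excitation) after EDTA-containing antibody and XL-615 addition. Reaction ran 1 h at pH 7.0 (Hepes, MgCl2, DTT) with 0.2 ng/μL JAK1 and ATP at 2 μM. IC50 derived by Hill-slope fit.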
# JAK2 = JAK2 (Homo sapiens, UniProt O60674); experiment: JAK kinase activity, homogeneous time-resolved fluorescence (JAK2 reaction system); settings: ATP 2 μM, JAK2 protein 0.01 ng/μL
# JAK2, sequence (O60674 whole entry): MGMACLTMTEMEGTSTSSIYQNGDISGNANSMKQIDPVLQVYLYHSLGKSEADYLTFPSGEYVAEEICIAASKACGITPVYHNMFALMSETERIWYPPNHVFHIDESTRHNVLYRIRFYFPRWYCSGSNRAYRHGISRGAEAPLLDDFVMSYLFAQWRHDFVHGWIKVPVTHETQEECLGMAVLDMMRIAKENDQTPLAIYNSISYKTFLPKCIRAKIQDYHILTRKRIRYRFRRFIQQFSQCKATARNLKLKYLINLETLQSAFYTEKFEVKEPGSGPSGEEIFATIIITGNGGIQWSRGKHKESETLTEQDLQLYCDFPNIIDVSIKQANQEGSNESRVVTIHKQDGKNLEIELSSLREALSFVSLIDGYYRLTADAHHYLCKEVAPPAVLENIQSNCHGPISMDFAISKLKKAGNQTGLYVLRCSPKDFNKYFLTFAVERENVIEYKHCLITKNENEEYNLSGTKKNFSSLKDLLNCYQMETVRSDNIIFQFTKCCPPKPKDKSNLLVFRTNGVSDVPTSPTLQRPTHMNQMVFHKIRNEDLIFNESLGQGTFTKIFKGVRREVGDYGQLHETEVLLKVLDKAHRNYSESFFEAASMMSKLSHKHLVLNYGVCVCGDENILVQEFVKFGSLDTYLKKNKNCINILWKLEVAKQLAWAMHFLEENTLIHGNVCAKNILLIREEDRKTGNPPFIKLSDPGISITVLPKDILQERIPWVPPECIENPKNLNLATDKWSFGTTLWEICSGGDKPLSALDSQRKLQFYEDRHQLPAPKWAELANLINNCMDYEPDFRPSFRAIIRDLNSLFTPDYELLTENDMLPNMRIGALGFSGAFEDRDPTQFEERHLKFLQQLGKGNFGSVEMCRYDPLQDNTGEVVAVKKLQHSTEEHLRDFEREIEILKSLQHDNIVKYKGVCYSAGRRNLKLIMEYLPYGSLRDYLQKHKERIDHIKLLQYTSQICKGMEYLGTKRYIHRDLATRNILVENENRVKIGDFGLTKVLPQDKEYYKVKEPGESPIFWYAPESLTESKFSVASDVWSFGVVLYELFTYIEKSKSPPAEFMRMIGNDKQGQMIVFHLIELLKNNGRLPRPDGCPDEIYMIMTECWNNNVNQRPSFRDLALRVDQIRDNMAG
# In short: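 IC50 derived by Hill-equation fit of the 665/615 nm time-resolved fluorescence ratio after EDTA-containing detection mix with anti-phosphosubstrate antibody. Preceding 1 h reaction contained 2 μM ATP, 0.01 ng/μL JAK2, substrate, 50 mM Hepes pH 7.0, 5 mM MgCl2, 1 mM DTT.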
# JAK3 = biological target: T1, JAK3 (Homo sapiens, UniProt P52333); experiment: JAK kinase activity, homogeneous time-resolved fluorescence (JAK3 reaction system); settings: ATP 2 μM, JAK3 protein 0.04 ng/μL; read-out: JAK 3 activity
# T1 sequence (P52333 1-1124): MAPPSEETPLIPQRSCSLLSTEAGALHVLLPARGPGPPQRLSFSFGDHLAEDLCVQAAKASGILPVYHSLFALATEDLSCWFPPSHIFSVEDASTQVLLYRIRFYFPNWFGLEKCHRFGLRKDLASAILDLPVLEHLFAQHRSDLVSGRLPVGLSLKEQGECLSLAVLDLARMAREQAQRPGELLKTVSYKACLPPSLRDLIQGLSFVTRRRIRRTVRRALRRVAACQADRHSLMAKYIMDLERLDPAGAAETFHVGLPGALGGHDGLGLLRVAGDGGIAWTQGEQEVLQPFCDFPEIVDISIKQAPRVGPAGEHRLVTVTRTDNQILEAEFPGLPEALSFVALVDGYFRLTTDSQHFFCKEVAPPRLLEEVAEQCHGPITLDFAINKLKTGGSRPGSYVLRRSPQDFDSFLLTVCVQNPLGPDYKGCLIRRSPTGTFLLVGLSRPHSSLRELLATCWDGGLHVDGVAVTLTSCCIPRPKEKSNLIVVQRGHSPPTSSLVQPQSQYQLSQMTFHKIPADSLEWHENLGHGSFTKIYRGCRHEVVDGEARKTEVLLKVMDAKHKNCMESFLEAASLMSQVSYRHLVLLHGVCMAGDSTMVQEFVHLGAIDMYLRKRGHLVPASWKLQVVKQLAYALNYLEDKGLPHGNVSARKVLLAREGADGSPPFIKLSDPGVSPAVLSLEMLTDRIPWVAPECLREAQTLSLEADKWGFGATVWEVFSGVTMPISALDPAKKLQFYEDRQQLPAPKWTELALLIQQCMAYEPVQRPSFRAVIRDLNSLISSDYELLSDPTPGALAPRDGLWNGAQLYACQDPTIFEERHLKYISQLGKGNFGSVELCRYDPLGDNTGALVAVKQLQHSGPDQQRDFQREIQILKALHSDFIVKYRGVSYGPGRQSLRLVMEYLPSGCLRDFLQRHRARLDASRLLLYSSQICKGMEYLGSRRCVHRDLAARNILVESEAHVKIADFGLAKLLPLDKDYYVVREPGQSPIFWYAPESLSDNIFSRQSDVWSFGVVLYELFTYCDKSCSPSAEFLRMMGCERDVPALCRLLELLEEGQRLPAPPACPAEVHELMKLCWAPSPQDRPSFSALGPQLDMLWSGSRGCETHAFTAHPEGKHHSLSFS
# TYK2 = TYK2 (Homo sapiens, UniProt P29597); experiment: JAK kinase activity, homogeneous time-resolved fluorescence (TYK2 reaction system); settings: ATP 2 μM, TYK2 protein 0.2 ng/μL; read-out: TYK 2 activity
# TYK2, sequence (P29597 whole entry): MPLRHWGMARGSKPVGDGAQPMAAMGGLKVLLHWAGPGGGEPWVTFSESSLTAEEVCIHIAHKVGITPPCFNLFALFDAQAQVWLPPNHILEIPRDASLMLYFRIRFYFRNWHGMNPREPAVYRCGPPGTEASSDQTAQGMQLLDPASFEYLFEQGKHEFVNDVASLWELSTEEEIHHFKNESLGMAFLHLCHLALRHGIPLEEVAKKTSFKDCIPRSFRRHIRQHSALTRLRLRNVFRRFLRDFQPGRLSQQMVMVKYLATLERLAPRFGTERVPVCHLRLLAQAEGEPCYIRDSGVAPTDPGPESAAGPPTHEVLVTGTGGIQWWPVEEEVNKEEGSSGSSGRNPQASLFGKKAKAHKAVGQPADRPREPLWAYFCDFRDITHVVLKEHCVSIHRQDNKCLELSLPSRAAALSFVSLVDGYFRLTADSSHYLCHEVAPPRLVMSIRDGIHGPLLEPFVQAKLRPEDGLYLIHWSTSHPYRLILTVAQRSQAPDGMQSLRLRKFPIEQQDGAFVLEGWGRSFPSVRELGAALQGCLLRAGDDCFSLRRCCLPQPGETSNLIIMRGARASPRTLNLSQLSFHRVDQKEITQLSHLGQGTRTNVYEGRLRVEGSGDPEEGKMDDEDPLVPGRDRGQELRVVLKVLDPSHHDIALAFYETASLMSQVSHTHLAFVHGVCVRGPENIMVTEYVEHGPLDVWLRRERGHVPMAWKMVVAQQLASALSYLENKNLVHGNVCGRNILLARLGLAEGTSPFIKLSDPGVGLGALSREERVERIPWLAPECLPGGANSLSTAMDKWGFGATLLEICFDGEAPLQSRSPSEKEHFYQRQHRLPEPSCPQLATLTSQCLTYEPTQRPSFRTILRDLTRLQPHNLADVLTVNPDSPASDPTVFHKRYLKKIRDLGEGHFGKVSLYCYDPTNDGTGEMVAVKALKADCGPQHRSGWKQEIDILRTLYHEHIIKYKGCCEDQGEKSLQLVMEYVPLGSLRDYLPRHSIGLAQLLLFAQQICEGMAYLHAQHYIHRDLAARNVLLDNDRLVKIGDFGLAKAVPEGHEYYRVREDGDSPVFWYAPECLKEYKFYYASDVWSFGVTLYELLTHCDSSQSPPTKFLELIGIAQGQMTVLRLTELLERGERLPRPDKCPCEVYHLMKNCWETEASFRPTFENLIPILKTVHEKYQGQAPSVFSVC
# In short: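 Activity read as the 665 nm/615 nm ratio after adding EDTA-containing detection mix with anti-phospho-substrate antibody and XL-615. Beforehand, 0.2 ng/μL TYK2, 2 μM ATP, substrate and compound reacted 1 h in pH 7.0 Hepes buffer with MgCl2 and DTT. IC50 fitted with Hill-slope equation.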
# JAK1, sequence (P23458 whole entry): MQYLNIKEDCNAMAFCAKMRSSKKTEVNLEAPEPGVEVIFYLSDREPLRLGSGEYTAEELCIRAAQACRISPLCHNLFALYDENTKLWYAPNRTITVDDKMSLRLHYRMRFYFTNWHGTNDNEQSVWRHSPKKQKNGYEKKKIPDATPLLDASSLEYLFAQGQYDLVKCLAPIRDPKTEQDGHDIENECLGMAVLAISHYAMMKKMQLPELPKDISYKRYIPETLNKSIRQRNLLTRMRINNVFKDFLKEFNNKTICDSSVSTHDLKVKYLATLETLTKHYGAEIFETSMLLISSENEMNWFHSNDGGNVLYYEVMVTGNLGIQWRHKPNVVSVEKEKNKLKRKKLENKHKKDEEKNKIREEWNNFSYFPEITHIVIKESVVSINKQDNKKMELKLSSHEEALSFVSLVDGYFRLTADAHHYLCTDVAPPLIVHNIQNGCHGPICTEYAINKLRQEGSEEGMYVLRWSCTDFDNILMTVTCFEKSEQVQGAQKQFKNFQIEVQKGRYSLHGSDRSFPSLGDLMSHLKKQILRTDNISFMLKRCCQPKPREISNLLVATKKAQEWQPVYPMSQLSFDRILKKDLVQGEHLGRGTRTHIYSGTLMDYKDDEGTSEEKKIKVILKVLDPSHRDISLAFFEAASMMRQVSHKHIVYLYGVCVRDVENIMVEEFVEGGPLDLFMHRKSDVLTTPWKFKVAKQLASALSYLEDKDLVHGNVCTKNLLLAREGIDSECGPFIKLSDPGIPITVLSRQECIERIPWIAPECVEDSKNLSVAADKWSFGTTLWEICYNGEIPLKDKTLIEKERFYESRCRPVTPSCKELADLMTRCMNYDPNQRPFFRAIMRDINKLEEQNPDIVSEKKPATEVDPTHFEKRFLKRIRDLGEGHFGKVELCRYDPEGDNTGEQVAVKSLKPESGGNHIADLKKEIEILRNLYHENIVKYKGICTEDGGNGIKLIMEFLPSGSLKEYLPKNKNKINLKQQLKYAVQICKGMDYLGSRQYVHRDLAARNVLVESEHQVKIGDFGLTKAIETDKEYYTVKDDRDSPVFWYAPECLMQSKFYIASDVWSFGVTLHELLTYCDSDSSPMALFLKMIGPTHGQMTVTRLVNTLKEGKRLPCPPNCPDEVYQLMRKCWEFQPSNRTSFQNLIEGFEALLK
Structure (SMILES),IC50 (JAK1) [µM],IC50 (JAK2) [µM],IC50 (JAK3) [µM],IC50 (TYK2) [µM]
"Cc1cc2ccc1-c1ccnc(n1)Nc1cc(cc(N3CCOCC3)c1)COCCCCNC2=O [Example 46, 1^2-methyl-4^4-morpholin-6-oxa-3,11-diaza-2(4,2)-pyrimidina-1(1,4),4(1,3)-dibenzenacyclododecaphan-12-one]",1 to 10,0.101 to 1,0.011 to 0.1,1 to 10
"O=C1NCCCCOCc2cc(ccc2N2CCCCC2)Nc2nccc(n2)-c2ccc1cc2[N+](=O)[O-] [Example 48, 1^2-nitro-4^4-(piperidin-1-)-6-oxa-3,11-diaza-2(4,2)-pyrimidina-1(1,4),4(1,3)-dibenzenacyclododecaphan-12-one]",1 to 10,1 to 10,0.101 to 1,1 to 10
"O=C1NCCCCOCc2cc(cc(N3CCOCC3)c2)Nc2nccc(n2)-c2ccc1cc2[N+](=O)[O-] [Example 51, 1^2-nitro-4^5-morpholin-6-oxa-3,11-di-aza-2(4,2)-pyrimidina-1(1,4),4(1,3)-dibenzenacyclododecaphan-12-one]",1 to 10,1 to 10,0.101 to 1,> 10
"Nc1cc2ccc1-c1ccnc(n1)Nc1cc(cc(N3CCOCC3)c1)COCCCCNC2=O [Example 52, 1^2-amino-4^5-morpholin-6-oxa-3,11-diaza-2(4,2)-pyrimidina-1(1,4),4(1,3)-dibenzenacyclododecaphan-12-one]",0.101 to 1,0.011 to 0.1,< 0.01,0.101 to 1
"Nc1cc2ccc1-c1ccnc(n1)Nc1cccc(c1)COCCCCNC2=O [Example 54, 1^2-amino-6-oxa-3,11-diaza-2(4,2)-py-rimidina-1(1,4),4(1,3)-dibenzena-cyclododecaphan-12-one]",0.101 to 1,0.101 to 1,0.011 to 0.1,1 to 10
"Nc1cc2ccc1-c1ccnc(n1)Nc1ccc(N3CCCCC3)c(c1)COCCCCNC2=O [Example 55, 1^2-amino-4^4-(piperidin-1-)-6-oxa-3,11-diaza-2(4,2)-pyrimidina-1(1,4),4(1,3)-dibenzenacyclododecaphan-12-one]",0.101 to 1,0.011 to 0.1,< 0.01,0.101 to 1
"O=C1NCCCCOCc2cc(ccc2OC2CCOCC2)Nc2nccc(n2)-c2ccc1cc2[N+](=O)[O-] [Example 61, 1^2-nitro-4^4-(2H-tetrahydropyran-4-oxo)-6-oxa-3,11-diaza-2(4,2)-pyrimi-dina-1(1,4),4(1,3)-dibenzenacyclo-dodecaphan-12-one]",1 to 10,1 to 10,0.101 to 1,> 10
"O=C1NCCCCOCc2cc(ccc2N2CCSCC2)Nc2nccc(n2)-c2ccc1cc2[N+](=O)[O-] [Example 65, 1^2-nitro-4^4-thiomorpholin-6-oxa-3,11-diaza-2(4,2)-pyrimidina-1(1,4),4(1,3)-dibenzenacyclododecaphan-12-one]",1 to 10,1 to 10,1 to 10,1 to 10

# The next lines start with the values.
IC50 (JAK1) [µM],IC50 (JAK2) [µM],IC50 (JAK3) [µM],IC50 (TYK2) [µM],Structure (SMILES)
1 to 10,1 to 10,0.011 to 0.1,1 to 10,"Nc1cc2ccc1-c1ccnc(n1)Nc1ccc(OC3CCCCC3)c(c1)COCCCCNC2=O [Example 47, 1^2-amino-4^4-cyclohexyloxy-6-oxa-3,11-diaza-2(4,2)-pyrimidina-1(1,4),4(1,3)-dibenzenacyclododecaphan-12-one]"
1 to 10,0.101 to 1,1 to 10,1 to 10,"O=C1NCCCCCOCc2cc(ccc2N2CCOCC2)Nc2nccc(n2)-c2ccc1cc2[N+](=O)[O-] [Example 49, 1^2-nitro-4^4-morpholin-6-oxa-3,12-di-aza-2(4,2)-pyrimidina-1(1,4),4(1,3)-dibenzenacyclotridecaphan-13-one]"
0.101 to 1,0.011 to 0.1,< 0.01,0.011 to 0.1,"Nc1cc2ccc1-c1ccnc(n1)Nc1ccc(N3CCOCC3)c(c1)COCCCCCNC2=O [Example 50, 1^2-amino-4^4-morpholin-6-oxa-3,12-diaza-2(4,2)-pyrimidina-1(1,4),4(1,3)-dibenzenacyclotridecaphan-13-one]"
1 to 10,> 10,1 to 10,> 10,"O=C1NCCCCOCc2cccc(c2)Nc2nccc(n2)-c2ccc1cc2[N+](=O)[O-] [Example 53, 1^2-nitro-6-oxa-3,11-diaza-2(4,2)-py-rimidina-1(1,4),4(1,3)-dibenzenacyclo-dodecaphan-12-one]"
> 10,1 to 10,1 to 10,> 10,"O=C1NCCCCCCOCc2cc(ccc2N2CCOCC2)Nc2nccc(n2)-c2ccc1cc2[N+](=O)[O-] [Example 56, 1^2-nitro-4^4-morpholin-6-oxa-3,13-di-aza-2(4,2)-pyrimidina-1(1,4),4(1,3)-dibenzenacyclotetradecaphan-14-one]"
1 to 10,0.101 to 1,0.011 to 0.1,0.101 to 1,"Nc1cc2ccc1-c1ccnc(n1)Nc1ccc(N3CCOCC3)c(c1)COCCCCCCNC2=O [Example 57, 1^2-amino-4^4-morpholin-6-oxa-3,13-diaza-2(4,2)-pyrimidina-1(1,4),4(1,3)-dibenzenacyclotetradecaphan-14-one]"
0.011 to 0.1,0.011 to 0.1,0.011 to 0.1,0.101 to 1,"COc1cnc2nc1-c1ccc(c(F)c1)C(=O)NCCCCOCc1cc(ccc1N1CCOCC1)N2 [Example 58, 1^3-fluoro-2^5-methoxy-4^4-morpholin-6-oxa-3,11-diaza-2(4,2)-pyrimidina-1(1,4),4(1,3)-dibenzenacyclodode-caphan-12-one]"
1 to 10,1 to 10,0.101 to 1,> 10,"CN1CCN(c2ccc3cc2COCCCCNC(=O)c2ccc(c([N+](=O)[O-])c2)-c2ccnc(n2)N3)CC1 [Example 59, 1^2-nitro-4^4-(4-methylpiperazin-1-)-6-oxa-3,11-diaza-2(4,2)-pyrimidina-1(1,4),4(1,3)-dibenzenacyclododeca-phan-12-one]"
0.101 to 1,0.101 to 1,0.101 to 1,1 to 10,"O=C1NCCCCOCc2cc(ccc2Cl)Nc2nccc(n2)-c2ccc1cc2[N+](=O)[O-] [Example 60, 1^2-nitro-4^4-chloro-6-oxa-3,11-diaza-2(4,2)-pyrimidina-1(1,4),4(1,3)-di-benzenacyclododecaphan-12-one]"
0.101 to 1,0.011 to 0.1,< 0.01,1 to 10,"Nc1cc2ccc1-c1ccnc(n1)Nc1ccc(OC3CCOCC3)c(c1)COCCCCNC2=O [Example 63, 1^2-amino-4^4-(4-tetrahydropyranoxy)-6-oxa-3,11-diaza-2(4,2)-pyrimidina-1(1,4),4(1,3)-dibenzenacyclo-dodecaphan-12-one]"
1 to 10,0.101 to 1,0.101 to 1,> 10,"CC(C)Oc1ccc2cc1COCCCCNC(=O)c1ccc(c([N+](=O)[O-])c1)-c1ccnc(n1)N2 [Example 64, 4^4-isopropoxy-1^2-nitro-6-oxa-3,11-diaza-2(4,2)-pyrimidina-1(1,4),4(1,3)-dibenzenacyclododecaphan-12-one]"
0.101 to 1,0.011 to 0.1,0.011 to 0.1,0.101 to 1,"Nc1cc2ccc1-c1ccnc(n1)Nc1ccc(N3CCSCC3)c(c1)COCCCCNC2=O [Example 66, 1^2-amino-4-thiomorpholin-6-oxa-3,11-diaza-2(4,2)-pyrimidina-1(1,4),4(1,3)-dibenzenacyclo-dodecaphan-12-one]"
